# Source: ChEMBL document CHEMBL1201862, “PubChem BioAssay data set” (2004)
# The source made the active and inactive calls.
# What was measured:
# [1] = inhibitors of firefly luciferase expression or activity, dose response, H4 neuroglioma cells, luminescence (AID 1990); format: functional, cell-based
# [2] = inhibitors of SNCA 5'UTR-driven reporter translation, confirmation, H4 neuroglioma cells, luminescence (AID 1988); format: functional, cell-based
# Protein skinhead-1 = target: T1, Protein skinhead-1 (Caenorhabditis elegans, UniProt P34707); format: functional
# T1 sequence (P34707 whole entry): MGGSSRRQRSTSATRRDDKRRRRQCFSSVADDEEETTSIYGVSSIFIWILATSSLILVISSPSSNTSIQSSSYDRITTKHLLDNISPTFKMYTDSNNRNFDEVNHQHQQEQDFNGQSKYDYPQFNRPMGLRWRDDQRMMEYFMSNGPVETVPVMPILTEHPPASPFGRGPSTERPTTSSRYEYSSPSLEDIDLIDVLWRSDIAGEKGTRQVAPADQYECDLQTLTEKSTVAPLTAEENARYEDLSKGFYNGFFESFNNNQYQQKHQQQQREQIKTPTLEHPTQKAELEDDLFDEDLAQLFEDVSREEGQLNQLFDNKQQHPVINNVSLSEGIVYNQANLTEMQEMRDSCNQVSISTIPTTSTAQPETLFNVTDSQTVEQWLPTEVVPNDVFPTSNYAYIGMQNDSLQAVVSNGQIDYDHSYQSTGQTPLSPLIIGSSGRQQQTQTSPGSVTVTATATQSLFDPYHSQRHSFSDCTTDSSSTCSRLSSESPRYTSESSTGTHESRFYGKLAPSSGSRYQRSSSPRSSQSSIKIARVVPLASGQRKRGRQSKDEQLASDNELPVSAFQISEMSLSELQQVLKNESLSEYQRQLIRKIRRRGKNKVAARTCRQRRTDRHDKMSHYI
# [3] = Luminescence Cell-Based Dose Response HTS to Identify Inhibitors of 5'UTR Stem-Loop Driven Prion Protein mRNA Translation in H4 Neuroglioblastoma Cells. [Related pubchem assays: 1827 (Project Summary), 1813 (Primary HTS)]; format: functional
# [4] = target: T2, Heat shock factor protein 1 (Mus musculus, UniProt P38532); test: HSF1 potentiators in luciferase reporter cells, confirmation, cell-based, NIH3T3, luminescence, dose retest (AID 435004); format: functional;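 further: stress induced by proteasome inhibitor MG132 added 30 min after compound; luciferase reporter driven by HSF1 response element in NIH3T3 cells; actives raise luminescence as potentiators of the MG132 stress response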
# T2 sequence (P38532 whole entry): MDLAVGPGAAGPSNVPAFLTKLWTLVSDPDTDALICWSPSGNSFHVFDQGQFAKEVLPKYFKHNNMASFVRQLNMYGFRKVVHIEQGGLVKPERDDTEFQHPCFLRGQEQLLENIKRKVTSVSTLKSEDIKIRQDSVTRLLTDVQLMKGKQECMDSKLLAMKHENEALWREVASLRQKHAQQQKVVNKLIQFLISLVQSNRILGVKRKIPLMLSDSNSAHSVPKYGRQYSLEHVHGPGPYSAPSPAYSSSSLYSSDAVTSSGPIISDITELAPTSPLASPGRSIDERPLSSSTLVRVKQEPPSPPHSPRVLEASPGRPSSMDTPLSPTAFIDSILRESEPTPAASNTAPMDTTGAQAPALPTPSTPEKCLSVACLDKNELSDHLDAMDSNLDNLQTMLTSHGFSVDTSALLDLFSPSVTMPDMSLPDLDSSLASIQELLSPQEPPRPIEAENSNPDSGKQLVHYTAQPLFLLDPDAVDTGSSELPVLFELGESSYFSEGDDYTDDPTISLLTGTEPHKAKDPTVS
# [5] = target: T3, Corticotropin-releasing factor receptor 2/Corticotropin-releasing factor-binding protein (Homo sapiens, UniProt P24387+Q13324); test: activators of CRF receptor 2 with binding protein – uHTS hits, confirmation (AID 602473); format: functional; conditions: read-out: EC50_Mean
# T3 sequence (Q13324 whole entry): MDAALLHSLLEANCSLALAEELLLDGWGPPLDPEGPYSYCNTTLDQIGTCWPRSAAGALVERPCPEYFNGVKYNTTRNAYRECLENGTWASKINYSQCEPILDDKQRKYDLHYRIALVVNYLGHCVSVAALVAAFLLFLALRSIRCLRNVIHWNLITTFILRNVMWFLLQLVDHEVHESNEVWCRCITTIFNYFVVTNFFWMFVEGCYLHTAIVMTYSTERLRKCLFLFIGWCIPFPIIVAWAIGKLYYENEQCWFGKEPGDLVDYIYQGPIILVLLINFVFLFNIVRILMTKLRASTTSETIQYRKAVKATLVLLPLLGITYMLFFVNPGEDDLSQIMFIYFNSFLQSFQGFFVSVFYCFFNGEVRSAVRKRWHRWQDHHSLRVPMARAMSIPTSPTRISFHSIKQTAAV
# T3 sequence (P24387 whole entry): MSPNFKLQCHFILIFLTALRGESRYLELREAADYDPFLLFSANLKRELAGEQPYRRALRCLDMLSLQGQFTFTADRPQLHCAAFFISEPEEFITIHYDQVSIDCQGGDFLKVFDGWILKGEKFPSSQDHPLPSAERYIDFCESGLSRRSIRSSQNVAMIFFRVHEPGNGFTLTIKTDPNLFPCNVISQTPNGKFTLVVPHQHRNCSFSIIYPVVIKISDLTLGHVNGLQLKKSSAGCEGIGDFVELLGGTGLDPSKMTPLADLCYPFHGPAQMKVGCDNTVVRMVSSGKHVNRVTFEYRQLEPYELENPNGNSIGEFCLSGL
# [6] = target: T4, Calpain-2 catalytic subunit (Sus scrofa, UniProt P43367); test: pig calpain II inhibitor potency, dose response, biochemical, fluorogenic peptide substrate (AID 1420); format: functional
# T4 sequence (P43367 whole entry): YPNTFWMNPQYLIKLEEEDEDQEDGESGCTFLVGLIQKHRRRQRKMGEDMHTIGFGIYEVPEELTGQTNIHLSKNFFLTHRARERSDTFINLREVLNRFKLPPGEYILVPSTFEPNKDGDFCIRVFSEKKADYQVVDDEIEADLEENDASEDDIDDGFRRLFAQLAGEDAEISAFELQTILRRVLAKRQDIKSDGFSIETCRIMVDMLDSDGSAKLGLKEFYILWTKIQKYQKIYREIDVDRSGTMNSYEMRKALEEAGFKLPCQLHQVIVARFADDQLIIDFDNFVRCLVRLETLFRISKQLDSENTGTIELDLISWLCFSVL
# INS1 = test: beta cell apoptosis inhibitors, cytokine rescue, dose response, luminescence, retest (AID 449756); format: functional, cell-based; conditions: Rattus norvegicus;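 further: cell death triggered by IL-1 beta plus TNF-alpha plus IFN-gamma mixture; protective hits raise ATP signal compared with cytokine alone wells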
# [7] = inhibitors of intracellular T. cruzi replication, confirmation, NIH3T3 host cells, beta-gal luminescence (AID 2044); format: functional, cell-based;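 further: intracellular parasites grown in NIH/3T3 mouse fibroblasts as host cells; luminescent beta-galactosidase reporter signal from transgenic T. cruzi replicating inside host cells; inhibitors lower the luminescence signal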
# [8] = cytotoxicity toward NIH3T3 fibroblasts, dose response, counter-screen, cell-based, ATP luminescence, mouse fibroblasts (AID 2010); format: functional;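 further: cells exposed to compound for about 90 hours before reading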
# Cytochrome P450 2C9 = Cytochrome P450 2C9 (Homo sapiens, UniProt P11712)
# Sequence of Cytochrome P450 2C9 (P11712 whole entry): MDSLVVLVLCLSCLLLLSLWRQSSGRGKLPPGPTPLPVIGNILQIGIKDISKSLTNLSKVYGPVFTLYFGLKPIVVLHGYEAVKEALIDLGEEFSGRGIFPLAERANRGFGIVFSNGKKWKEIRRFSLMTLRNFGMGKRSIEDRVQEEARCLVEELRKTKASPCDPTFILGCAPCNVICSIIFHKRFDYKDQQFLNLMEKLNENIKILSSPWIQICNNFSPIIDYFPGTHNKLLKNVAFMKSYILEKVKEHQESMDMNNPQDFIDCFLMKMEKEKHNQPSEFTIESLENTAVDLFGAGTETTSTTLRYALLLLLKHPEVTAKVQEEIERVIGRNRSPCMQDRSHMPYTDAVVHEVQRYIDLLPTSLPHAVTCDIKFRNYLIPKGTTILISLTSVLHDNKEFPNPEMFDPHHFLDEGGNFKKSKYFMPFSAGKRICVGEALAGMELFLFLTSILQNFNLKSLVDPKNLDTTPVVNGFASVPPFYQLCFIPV
# Cytochrome P450 1A2 = target: T5, Cytochrome P450 1A2 (Homo sapiens, UniProt P05177);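 further: PubChem cytochrome P450 panel assay, CYP1A2 panel member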
# T5 sequence (P05177 whole entry): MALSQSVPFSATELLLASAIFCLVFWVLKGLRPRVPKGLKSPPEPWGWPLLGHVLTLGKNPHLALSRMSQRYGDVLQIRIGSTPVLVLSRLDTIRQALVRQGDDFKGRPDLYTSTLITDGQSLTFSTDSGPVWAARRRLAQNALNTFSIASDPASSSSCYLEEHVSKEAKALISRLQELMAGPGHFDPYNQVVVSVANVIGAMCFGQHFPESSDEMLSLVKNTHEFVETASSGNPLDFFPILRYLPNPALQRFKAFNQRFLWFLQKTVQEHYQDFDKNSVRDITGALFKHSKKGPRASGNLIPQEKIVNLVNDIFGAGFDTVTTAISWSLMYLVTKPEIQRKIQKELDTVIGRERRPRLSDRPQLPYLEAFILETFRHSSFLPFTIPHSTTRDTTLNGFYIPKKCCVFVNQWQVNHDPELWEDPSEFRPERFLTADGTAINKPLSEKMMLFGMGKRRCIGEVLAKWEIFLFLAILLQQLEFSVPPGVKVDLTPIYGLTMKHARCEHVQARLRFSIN
# Cytochrome P450 3A4 = Cytochrome P450 3A4 (Homo sapiens, UniProt P08684);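 further: CYP3A4 tested as one member of a cytochrome P450 panel screen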
# Sequence of Cytochrome P450 3A4 (P08684 whole entry): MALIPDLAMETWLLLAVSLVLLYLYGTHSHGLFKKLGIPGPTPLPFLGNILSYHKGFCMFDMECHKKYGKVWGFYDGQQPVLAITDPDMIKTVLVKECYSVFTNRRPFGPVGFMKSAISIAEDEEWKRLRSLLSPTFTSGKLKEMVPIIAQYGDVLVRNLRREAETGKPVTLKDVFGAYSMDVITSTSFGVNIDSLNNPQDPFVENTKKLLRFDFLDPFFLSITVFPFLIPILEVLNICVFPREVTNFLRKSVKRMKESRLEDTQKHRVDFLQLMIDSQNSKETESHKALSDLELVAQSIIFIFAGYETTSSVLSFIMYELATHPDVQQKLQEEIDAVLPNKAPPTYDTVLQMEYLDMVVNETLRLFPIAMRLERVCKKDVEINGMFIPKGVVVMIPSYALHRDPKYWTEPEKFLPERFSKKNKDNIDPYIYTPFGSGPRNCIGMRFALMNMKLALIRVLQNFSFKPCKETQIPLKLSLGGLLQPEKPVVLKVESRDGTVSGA
# [9] = target: T3, Corticotropin-releasing factor receptor 2/Corticotropin-releasing factor-binding protein; test: Dose Response confirmation of uHTS hits for small molecule antagonists of the CRF-binding protein and CRF-R2 receptor complex.; format: functional; conditions: read-out: IC50_Mean
Compound,EC50 [1],EC50 [2],EC50 [3],EC50 [4],other results
CCCNC(=O)CCn1nc(-c2ccc(Cl)cc2)c2ccccc2c1=O,18.5 µM (active),> 120 µM (not active),–,–,–
COc1nc(-c2ccccc2)nnc1-c1ccccc1,–,–,–,–,IC50 (Protein skinhead-1): 23 µM (active)
C=C(C)COc1ccc(-c2nc(N)ncc2-c2ccc(OC)c(OC)c2)c(O)c1,33.7 µM (active),15.7 µM (active),> 120 µM (not active),–,–
CC1(c2ccc([N+](=O)[O-])cc2)NC(=O)N(CC(=O)c2ccc3c(c2)OCO3)C1=O (configuration not stated),–,–,–,> 260 µM (inactive),EC50 [5]: 12.1 µM (active)
O=[N+]([O-])c1ccc(NCc2ccc(Cl)cc2)nc1,–,–,–,–,IC50 [6]: 12.6 µM (not active); IC50 (Protein skinhead-1): 32.1 µM (active)
CC(Oc1ccc(Cl)cc1)C(=O)OCC(=O)Nc1ncc(Cl)cc1Cl (configuration not stated),–,–,–,> 260 µM (inactive),–
CS(=O)(=O)N(CC(=O)Nc1ccc(CC#N)cc1)c1ccc(C23CC4CC(CC(C4)C2)C3)cc1,–,–,–,> 260 µM (inactive),AC50 (INS1): 6.44 µM (active); EC50 [7]: 2.35 µM (active); EC50 [8]: > 60 µM (not active)
CC(C)CC(=O)Nc1ccc(N2CCOCC2)cc1,–,–,–,> 260 µM (inactive),–
COc1cc(NC(=O)c2cc3ccccc3o2)c(OC)cc1Br,–,14.7 µM (active),> 120 µM (not active),–,AC50 (Cytochrome P450 2C9): 0.112 µM (inconclusive); AC50 (Cytochrome P450 1A2): 2.24 µM (inconclusive); AC50 (Cytochrome P450 3A4): 10 µM (inconclusive)
Cc1ccc(OCC(=O)N2N=C(C(F)(F)F)CC2(O)C(C)(C)C)cc1C (configuration not stated),102 µM (active),33.1 µM (active),21.8 µM (active),–,–
COc1cccc(C(=O)OCC(=O)NCCC2=CCCCC2)c1,–,–,–,–,IC50 [9]: > 47.1 µM (inactive); EC50 [5]: > 53 µM (inactive)
CCCNC(=O)c1c(CSc2ccc(Cl)cc2)noc1C(=O)NCc1ccccc1,–,–,–,> 260 µM (inactive),–
COc1ccc(CNC(=O)CN(Cc2ccccc2)C(=O)CCC(=O)Nc2nccs2)cc1,–,–,–,> 260 µM (inactive),–
CCOc1ccc(S(=O)(=O)N2CN(c3cccc(C(C)=O)c3)c3nc4ccccc4nc32)cc1,–,–,–,–,IC50 [9]: < 0.368 µM (active); EC50 [5]: > 53 µM (inactive)
CCOc1cc(/C=N\NC(=O)C2C(=O)NCC2c2ccccc2)ccc1OC (configuration not stated),> 120 µM (not active),> 120 µM (not active),> 120 µM (not active),–,EC50 [5]: 5.59 µM (active)
Cc1cccc(C)c1/N=C1\SC(CC(=O)Nc2c(C)cccc2C)C(=O)N1CCc1ccccn1 (configuration not stated),10.2 µM (active),95.8 µM (active),0.46 µM (active),–,–
